Reference: US7566712B2, “Biaryl piperazinyl-pyridine analogues” (Neurogen Corporation, priority 2003, dated 2009)

What follows are compounds tested against T1, human capsaicin receptor (Homo sapiens, UniProt Q8NER1) (assay: Calcium mobilization assay, determination of antagonist activity (Example 6)). Settings: determined as described in Example 6 (calcium mobilization, antagonist activity); Table II.
T1 construct: pBK-CMV expression construct encoding the full length human capsaicin receptor; expressed in transfected cells
T1 sequence (Q8NER1 whole entry): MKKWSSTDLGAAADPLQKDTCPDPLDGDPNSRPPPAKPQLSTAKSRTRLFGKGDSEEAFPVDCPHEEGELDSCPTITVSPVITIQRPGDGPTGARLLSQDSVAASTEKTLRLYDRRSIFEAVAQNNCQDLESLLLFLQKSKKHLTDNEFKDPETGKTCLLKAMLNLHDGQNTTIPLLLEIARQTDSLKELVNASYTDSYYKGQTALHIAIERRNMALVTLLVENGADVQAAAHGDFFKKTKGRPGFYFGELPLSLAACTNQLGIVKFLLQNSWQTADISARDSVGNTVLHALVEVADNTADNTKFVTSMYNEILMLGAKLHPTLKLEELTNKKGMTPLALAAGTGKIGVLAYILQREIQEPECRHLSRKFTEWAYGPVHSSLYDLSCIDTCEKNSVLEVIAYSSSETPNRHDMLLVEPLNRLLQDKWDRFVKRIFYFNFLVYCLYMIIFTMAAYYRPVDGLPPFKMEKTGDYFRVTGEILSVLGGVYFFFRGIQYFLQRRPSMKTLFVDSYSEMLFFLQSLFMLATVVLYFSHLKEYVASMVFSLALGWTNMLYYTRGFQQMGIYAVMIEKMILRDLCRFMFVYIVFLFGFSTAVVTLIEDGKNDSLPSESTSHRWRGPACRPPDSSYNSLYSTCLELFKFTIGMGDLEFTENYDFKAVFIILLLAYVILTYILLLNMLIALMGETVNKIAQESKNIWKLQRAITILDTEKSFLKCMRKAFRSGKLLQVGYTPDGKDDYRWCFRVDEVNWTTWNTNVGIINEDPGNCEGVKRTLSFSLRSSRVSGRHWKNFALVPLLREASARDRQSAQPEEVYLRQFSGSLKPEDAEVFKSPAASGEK
Format: cell-based
Procedure, shortened: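 Antagonism measured as inhibition of capsaicin-evoked (final concentration = EC50, from an 8-point 1 nM–3 μM curve) Fluo-3 calcium signal in stable hVR1-HEK293 cells. Test compounds at 1–5 μM final, 0.5–6 h dark preincubation at room temperature. IC50 = concentration giving 50% reduction versus agonist-only response.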

Row | SMILES | IC50 [nM]
1 | CC(C)Nc1nc(-c2ccc(F)c(Cl)c2)cc(N2CCN(c3ncccc3C(F)(F)F)CC2)n1 [Example 580, 4-(3-chloro-4-fluorophenyl)-N-isopropyl-6-{4-[3-(trifluoromethyl)pyridin-2-yl]piperazin-1-yl}pyrimidin-2-amine] | ≤ 1000
2 | O=C1NCC2(CCN(c3nc(-c4ccc(F)c(Cl)c4)cc(N4CCN(c5ncccc5C(F)(F)F)CC4)n3)CC2)O1 [Example 581, 8-(4-(3-chloro-4-fluorophenyl)-6-{4-[3-(trifluoromethyl)pyridin-2-yl]piperazin-1-yl}pyrimidin-2-yl)-1-oxa-3,8-diazaspiro[4.5]decan-2-one] | ≤ 1000
3 | Fc1ccc(-c2cc(N3CCN(c4ncccc4C(F)(F)F)CC3)nc(OCc3ccccc3C(F)(F)F)n2)cc1F [Example 582, 4-(3,4-difluorophenyl)-2-{[2-(trifluoromethyl)benzyl]oxy}-6-{4-[3-(trifluoromethyl)pyridin-2-yl]piperazin-1-yl}pyrimidine] | ≤ 1000
4 | Nc1nc(-c2ccc(F)c(Cl)c2)cc(N2CCN(c3ncccc3C(F)(F)F)CC2)n1 [Example 584, 4-(3-chloro-4-fluorophenyl)-6-{4-[3-(trifluoromethyl)pyridin-2-yl]piperazin-1-yl}pyrimidin-2-amine] | ≤ 1000
5 | Cc1cc(-c2cc(N3CCN(c4ncccc4C(F)(F)F)CC3)nc(N3CCOCC3)n2)cc(C)n1 [Example 590, 4-(4-(2,6-dimethylpyridin-4-yl)-6-{4-[3-(trifluoromethyl)pyridin-2-yl]piperazin-1-yl}pyrimidin-2-yl)morpholine] | ≤ 1000
6 | CCN(CC)c1nc(-c2cc(C)nc(C)c2)cc(N2CCN(c3ncccc3C(F)(F)F)CC2)n1 [Example 591, 4-(2,6-dimethylpyridin-4-yl)-N,N-diethyl-6-{4-[3-(trifluoromethyl)pyridin-2-yl]piperazin-1-yl}pyrimidin-2-amine] | ≤ 1000
7 | CC(C)c1cc(-c2cc(N3CCN(c4ncccc4C(F)(F)F)CC3)nc(N3CCOCC3)n2)ccn1 [Example 592, 4-(4-(2-isopropylpyridin-4-yl)-6-{4-[3-(trifluoromethyl)pyridin-2-yl]piperazin-1-yl}pyrimidin-2-yl)morpholine] | ≤ 1000
8 | FC(F)(F)c1cccnc1N1CCN(c2cc(-c3cncc(Cl)c3)nc(N3CCOCC3)n2)CC1 [Example 593, 4-(4-(5-chloropyridin-3-yl)-6-{4-[3-(trifluoromethyl)pyridin-2-yl]piperazin-1-yl}pyrimidin-2-yl)morphotine] | ≤ 1000
9 | CCN(CC)c1nc(-c2ccc(F)c(C)c2)cc(N2CCN(c3ncccc3C(F)(F)F)CC2)n1 [Example 594, N,N-diethyl-4-(4-fluoro-3-methylphenyl)-6-{4-[3-(trifluoromethyl)pyridin-2-yl]piperazin-1-yl}pyrimidin-2-amine] | ≤ 1000
10 | CCN(CC)c1nc(-c2cncc(Cl)c2)cc(N2CCN(c3ncccc3C(F)(F)F)CC2)n1 [Example 595, 4-(5-chloropyridin-3-yl)-N,N-diethyl-6-{4-[3-(trifluoromethyl)pyridin-2-yl]piperazin-1-yl}pyrimidin-2-amine] | ≤ 1000
11 | CC(C)N(C)c1nc(-c2ccc(F)c(Cl)c2)cc(N2CCN(c3ncccc3C(F)(F)F)CC2)n1 [Example 600, 4-(3-chloro-4-fluorophenyl)-N-isopropyl-N-methyl-6-{4-[3-(trifluoromethyl)pyridin-2-yl]piperazin-1-yl}pyrimidin-2-amine] | ≤ 1000
12 | CCN(c1nc(-c2ccc(F)c(Cl)c2)cc(N2CCN(c3ncccc3C(F)(F)F)CC2)n1)C(C)C [Example 601, 4-(3-chloro-4-fluorophenyl)-N-ethyl-N-isopropyl-6-{4-[3-(trifluoromethyl)pyridin-2-yl]piperazin-1-yl}pyrimidin-2-amine] | ≤ 1000
13 | Fc1ccc(-c2cc(N3CCN(c4ncccc4C(F)(F)F)CC3)nc(N3CCCC3)n2)cc1Cl [Example 603, 4-(3-chloro-4-fluorophenyl)-2-pyrrolidin-1-yl-6-{4-[3-(trifluoromethyl)pyridin-2-yl]piperazin-1-yl}pyrimidine] | ≤ 1000

Other lines, results leading:

Row | IC50 [nM] | SMILES
14 | ≤ 1000 | CN(c1nc(-c2ccc(F)c(Cl)c2)cc(N2CCN(c3ncccc3C(F)(F)F)CC2)n1)C1CCCCC1 [Example 578, 4-(3-chloro-4-fluorophenyl)-N-cyclohexyl-N-methyt-6-{4-[3-(trifluoromethyl)pyridin-2-yl]piperazin-1-yl}pyrimidin-2-amine]
15 | ≤ 1000 | N#Cc1cccnc1N1CCN(c2cc(-c3ccc(F)c(Cl)c3)nc(N3CCOCC3)n2)CC1 [Example 583, 2-{4-[6-(3-chloro-4-fluorophenyl)-2-morpholin-4-ylpyrimidin-4-yl]piperazin-1-yl}nicotinonitrile]
16 | ≤ 1000 | Cc1cccnc1N1CCN(c2cc(-c3ccc(F)c(Cl)c3)nc(N3CCOCC3)n2)CC1 [Example 585, 4-{4-(3-chloro-4-fluorophenyl)-6-[4-(3-methylpyridin-2-yl)piperazin-1-yl]pyrimidin-2-yl}morpholine]
17 | ≤ 1000 | COc1cccnc1N1CCN(c2cc(-c3ccc(F)c(Cl)c3)nc(N3CCOCC3)n2)CC1 [Example 586, 4-{4-(3-chloro-4-fluorophenyl)-6-[4-(3-methoxypyridin-2-yl)piperazan-1-yl]pyrimidin-2-yl}morpholine]
18 | ≤ 1000 | Nc1cccnc1N1CCN(c2cc(-c3ccc(F)c(Cl)c3)nc(N3CCOCC3)n2)CC1 [Example 587, 2-{4-[6-(3-chloro-4-fluorophenyl)-2-morpholin-4-ylpyrimidin-4-yl]piperazin-1-yl}pyridin-3-amine]
19 | ≤ 1000 | CS(=O)(=O)Nc1cccnc1N1CCN(c2cc(-c3ccc(F)c(Cl)c3)nc(N3CCOCC3)n2)CC1 [Example 588, N-(2-{4-[6-(3-chloro-4-fluorophenyl)-2-morpholin-4-ylpyrimidin-4-yl]piperazin-1-yl}pyridin-3-yl)methanesulfonamide]
20 | ≤ 1000 | Nc1cccc(-c2cc(N3CCN(c4ncccc4C(F)(F)F)CC3)nc(N3CCOCC3)n2)c1 [Example 589, 3-(2-morpholin-4-yl-6-{4-[3-(trifluoromethyl)pyridin-2-yl]piperazin-1-yl}pyrimidin-4-yl)phenylamine]
21 | ≤ 1000 | CCN(CC)c1nc(-c2ccc(F)c(F)c2)cc(N2CCN(c3ncccc3C(F)(F)F)CC2)n1 [Example 596, 4-(3,4-difluorophenyl)-N,N-diethyl-6-{4-[3-(trifluoromethyl)pyridin-2-yl]piperazin-1-yl}pyrimidin-2-amine]
22 | ≤ 1000 | CCN(CC)c1nc(-c2cccc(Cl)c2)cc(N2CCN(c3ncccc3C(F)(F)F)CC2)n1 [Example 597, 4-(3-chlorophenyl)-N,N-diethyl-6-{4-[3-(trifluoromethyl)pyridin-2-yl]piperazin-1-yl}pyrimidin-2-amine]
23 | ≤ 1000 | CC(C)N1CCN(c2nc(-c3ccc(F)c(Cl)c3)cc(N3CCN(c4ncccc4C(F)(F)F)CC3)n2)CC1 [Example 598, 4-(3-chloro-4-fluorophenyl)-2-(4-isopropylpiperazin-1-yl)-6-{4-[3-(trifluoromethyl)pyridin-2-yl]piperazin-1-yl}pyrimidine]
24 | ≤ 1000 | Fc1ccc(-c2cc(N3CCN(c4ncccc4C(F)(F)F)CC3)nc(N3CCCCC3)n2)cc1Cl [Example 602, 4-(3-chloro-4-fluorophenyl)-2-piperidin-1-yl-6-{4-[3-(trifluoromethyl)pyridin-2-yl]piperazin-1-yl}pyrimidine]
